Earlier results on one molecule are cited in patent US7169586B2, “Mutant N-acetylglutamate synthase and method for L-arginine production” (Ajinomoto Co., Inc., priority 2000, dated 2007).

Usually Ki stands for the dissociation constant of the complex between target and ligand, obtained from inhibition or displacement.

In data set [1] the target is NAGS (Escherichia coli, UniProt P0A6C5). As to conditions: Leisinger and Haas 1975; read-out: Ki, inhibition of NAGS activity.
For data set [2], the system named is argA expression. Conditions: Cunin et al. 1986; Leisinger and Haas 1975.

Chain of NAGS (P0A6C5 whole entry): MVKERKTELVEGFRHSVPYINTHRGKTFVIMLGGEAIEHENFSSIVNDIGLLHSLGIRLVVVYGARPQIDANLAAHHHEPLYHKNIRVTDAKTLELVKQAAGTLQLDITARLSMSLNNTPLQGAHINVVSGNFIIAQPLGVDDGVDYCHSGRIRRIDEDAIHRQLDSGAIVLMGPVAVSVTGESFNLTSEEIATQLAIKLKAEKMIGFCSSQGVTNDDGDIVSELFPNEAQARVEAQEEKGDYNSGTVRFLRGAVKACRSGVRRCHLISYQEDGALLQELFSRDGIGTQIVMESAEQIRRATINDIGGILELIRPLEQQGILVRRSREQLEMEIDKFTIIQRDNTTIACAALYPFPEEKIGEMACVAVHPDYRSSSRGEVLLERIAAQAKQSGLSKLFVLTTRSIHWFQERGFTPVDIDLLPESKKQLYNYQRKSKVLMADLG

For the molecule `N=C(N)NCCC[C@H](N)C(=O)O` [L-Arginine], in data set [1], the Ki was 20 µM. Moreover, the “repression ratio of argA expression” value in data set [2] is “greater than 250”.
